Assay results from patent publication US20160010154A1, “SCREENING ASSAYS FOR THERAPEUTICS FOR PARKINSON'S DISEASE” (THE PARKINSON'S INSTITUTE, priority 2012, published 2016).

How the values were obtained:
[1] = test system: LRRK2 G2019S mutant and ZFN-corrected NPCs; assay: ROS production by CM-H2DCFDA fluorescence, flow cytometry; type: cell-based, human; settings: 200 μM for 60 min, normal growth conditions, both cell lines
Protocol: Cells were assayed for free radical production using CM-H2DCFDA that can be oxidized and rendered fluorescent by hydroxyl radicals produced by mitochondria. See, e.g., Petronilli et al. (1999) Biophysical journal 76:725-734; Nicholls (2009) Biochimica et biophysica acta 1787:1416-1424. Cytoplasmic fluorescence of this indicator dye in viable cells was assayed by flow cytometry to obtain a signature for cellular oxidative stress.
In particular, for stress experiments, NPCs were seeded 24 hours before being cultured under the following selective media conditions for an additional 18 hours: Standard NPC growth medium as above (HG=high glucose), HG plus 20 μM rotenone (HG+R) (SIGMA # R-8875) or an NPC growth medium formulation based on HG medium without glucose (NG, Life Techn. Neurobasal-A, Formula 05-0128DJ).
For flow cytometry, NPCs were seeded at 80% confluence on either 24-well (1-2×10^5 cells) or 48 well plates (5×10^4 cells) (NUNC #s 142475, 150687) on Geltrex (100 ug/ml protein) coated plates 24 hours before the experiment and then challenged as described above. In general two replicate wells were analyzed in each experimental run. After the respective treatment, cells were sampled by flow cytometry with an Accuri™ C6 cytometer with C-Sampler™ (BD Accuri) and subsequently analyzed using the Cflow® analysis software. […]

[2] = test system: LRRK2 mutant and ZFN-corrected NPCs; assay: Mitochondrial calcein retention (MTP opening), HCI microscopy; type: cell-based, human; settings: rotenone stress, corrected and LRRK2 mutant lines
Protocol: Cells grown on high glucose (HG) with or without 20 uM rotenone (R) or with radical generator TBHP (200 uM). Cells were analyzed by flow cytometry and mean CM-DCFDA fluorescence (Ex./Em. 495/529 nm) of live cells was then normalized to number of viable cells. […] Images: Depicted are representative image overlays showing mitochondrial fluorescence patterns indicative of mitochondrial membrane potential for the corrected (1.7) and uncorrected (1.13) NPCs. […] Mitochondria were loaded with calcein AM and cytosolic fluorescence was quenched by CoCl2. Graph: Relative amount of mitochondrial localized calcein fluorescence identified by Mitotracker™ Red CMXROS co-localization was normalized to cell number. Images: Representative image overlays showing mitochondrial fluorescence patterns indicative of mitochondrial calcein retention and mitochondrial integrity in corrected (1.7) and uncorrected (1.13) NPCs. FIG. 4D is a graph showing HCI analysis of caspase 3/7 activation in LRRK2 NPCs measured by fluorescence activated by caspase 3/7 mediated cleavage of a DEVD peptide-DNA dye conjugate. NPCs were incubated with the caspase substrate and the % of caspase substrate fluorescence positive cells (identified by nuclear Hoechst 33342 counterstain) was determined from 4 sites acquired at 10× magnification. […]

Compound	ROS response to radical generator [1]	mitochondrial calcein loading [2]
CC(C)(C)OO [TBHP]	increase of ROS	–
C=C(C)[C@H]1Cc2c(ccc3c2O[C@@H]2COc4cc(OC)c(OC)cc4[C@@H]2C3=O)O1 [rotenone]	–	increased mitochondrial calcein loading
